Test results from US20110015162A1, “15,16-Methylene-17-hydroxy-19-nor-21-carboxylic acid-steroid Y-lactone derivative, use thereof and medicinal products containing the derivative” (Bayer Schering Pharma Aktiengesellschaft, priority 2007, published 2011).
pEC50, pIC50: −log10 of the molar value. Read-outs that look alike come from different tables or passages of the source.

Assays:
androgen receptor [1] = biological target: T1, androgen receptor (Homo sapiens, UniProt P10275); assay: Androgenic/antiandrogenic action by transactivation test (PC3 reporter cells); type: cell-based; parameters: expressed in transfected cells; host or cells: PC3 cells
T1 sequence (P10275 1-920): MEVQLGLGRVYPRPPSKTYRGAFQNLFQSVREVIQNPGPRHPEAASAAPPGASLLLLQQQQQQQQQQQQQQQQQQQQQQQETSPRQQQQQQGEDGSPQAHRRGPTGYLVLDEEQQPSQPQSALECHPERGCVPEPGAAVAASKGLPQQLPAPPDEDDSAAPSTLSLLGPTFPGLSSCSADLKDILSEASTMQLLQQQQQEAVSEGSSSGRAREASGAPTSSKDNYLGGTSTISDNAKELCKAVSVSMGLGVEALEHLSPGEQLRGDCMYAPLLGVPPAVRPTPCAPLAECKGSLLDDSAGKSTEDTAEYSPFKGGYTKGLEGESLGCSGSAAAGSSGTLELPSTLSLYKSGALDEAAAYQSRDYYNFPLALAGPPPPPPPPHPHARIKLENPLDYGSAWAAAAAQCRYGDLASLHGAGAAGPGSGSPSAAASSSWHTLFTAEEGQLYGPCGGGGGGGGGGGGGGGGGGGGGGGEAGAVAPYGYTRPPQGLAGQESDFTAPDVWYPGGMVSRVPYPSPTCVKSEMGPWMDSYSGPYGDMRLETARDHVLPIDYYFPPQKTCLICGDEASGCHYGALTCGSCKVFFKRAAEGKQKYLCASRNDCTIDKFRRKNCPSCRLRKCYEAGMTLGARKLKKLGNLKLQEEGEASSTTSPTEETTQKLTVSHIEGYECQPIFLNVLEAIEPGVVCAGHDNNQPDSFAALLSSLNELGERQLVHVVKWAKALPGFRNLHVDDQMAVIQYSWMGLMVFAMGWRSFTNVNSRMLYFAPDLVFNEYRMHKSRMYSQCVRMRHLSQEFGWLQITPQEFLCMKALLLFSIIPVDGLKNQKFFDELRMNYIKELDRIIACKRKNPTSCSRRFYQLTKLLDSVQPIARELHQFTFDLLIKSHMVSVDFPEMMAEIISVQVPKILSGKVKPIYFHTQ
Protocol: (§1) The test compounds were added eight hours later, and the cells were incubated with the compounds for 16 hours. The tests were carried out in triplicate. At the end of incubation the medium containing the effector was removed and replaced with lysis buffer. After luciferase assay substrate (Promega, #E1501) had been added, the 96-well plates were then put in a microplate luminometer (Pherastar, BMG Labtech), and the luminescence was measured. The IC50 values were evaluated using software for calculating dose-effect relations.
6. Determination of Androgenic/Antiandrogenic Action by Means of Transactivation Tests:
The androgenic/antiandrogenic action of the test substances was determined as for the transactivation tests described above.
The following modifications were made: In this case reporter cell lines were used (PC3 cells) that express the androgen receptor, and a reporter construct that contains luciferase under the control of a steroid hormone-responsive promoter.
For determination of the antiandrogenic efficacy, 0.05 nM R1881 was added to the cells, in order to achieve almost maximum stimulation of the reporter gene.

androgen receptor [2] = biological target: T1, androgen receptor; assay: Androgen receptor binding test; parameters: expressed in transfected cells; conditions: reference substance 3H-testosterone
androgen receptor [3] = biological target: T1, androgen receptor; assay: Androgen receptor binding test; parameters: expressed in transfected cells
Protocol: Using cytosol from progesterone receptor-expressing insect cells (Hi5), competitive binding to the progesterone receptor was determined from the ability to displace ^3H-progesterone as reference substance from the receptor.
3. Androgen Receptor Binding Test: […]

[4] = biological target: T2, mineralocorticoid receptor (Homo sapiens, UniProt P08235); assay: Antimineralocorticoid action by transactivation test (MDCK reporter cells); type: cell-based; parameters: expressed in transfected cells; host or cells: MDCK cells; conditions: for Emax: read-out: Mineralocorticoid receptor Antagonism efficacy;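 as to Emax: percent inhibition of the aldosterone-stimulated reporter signal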;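 as to Mineralocorticoid receptor Antagonism efficacy: percent inhibition of the aldosterone-stimulated reporter signal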
T2 sequence (P08235 1-984): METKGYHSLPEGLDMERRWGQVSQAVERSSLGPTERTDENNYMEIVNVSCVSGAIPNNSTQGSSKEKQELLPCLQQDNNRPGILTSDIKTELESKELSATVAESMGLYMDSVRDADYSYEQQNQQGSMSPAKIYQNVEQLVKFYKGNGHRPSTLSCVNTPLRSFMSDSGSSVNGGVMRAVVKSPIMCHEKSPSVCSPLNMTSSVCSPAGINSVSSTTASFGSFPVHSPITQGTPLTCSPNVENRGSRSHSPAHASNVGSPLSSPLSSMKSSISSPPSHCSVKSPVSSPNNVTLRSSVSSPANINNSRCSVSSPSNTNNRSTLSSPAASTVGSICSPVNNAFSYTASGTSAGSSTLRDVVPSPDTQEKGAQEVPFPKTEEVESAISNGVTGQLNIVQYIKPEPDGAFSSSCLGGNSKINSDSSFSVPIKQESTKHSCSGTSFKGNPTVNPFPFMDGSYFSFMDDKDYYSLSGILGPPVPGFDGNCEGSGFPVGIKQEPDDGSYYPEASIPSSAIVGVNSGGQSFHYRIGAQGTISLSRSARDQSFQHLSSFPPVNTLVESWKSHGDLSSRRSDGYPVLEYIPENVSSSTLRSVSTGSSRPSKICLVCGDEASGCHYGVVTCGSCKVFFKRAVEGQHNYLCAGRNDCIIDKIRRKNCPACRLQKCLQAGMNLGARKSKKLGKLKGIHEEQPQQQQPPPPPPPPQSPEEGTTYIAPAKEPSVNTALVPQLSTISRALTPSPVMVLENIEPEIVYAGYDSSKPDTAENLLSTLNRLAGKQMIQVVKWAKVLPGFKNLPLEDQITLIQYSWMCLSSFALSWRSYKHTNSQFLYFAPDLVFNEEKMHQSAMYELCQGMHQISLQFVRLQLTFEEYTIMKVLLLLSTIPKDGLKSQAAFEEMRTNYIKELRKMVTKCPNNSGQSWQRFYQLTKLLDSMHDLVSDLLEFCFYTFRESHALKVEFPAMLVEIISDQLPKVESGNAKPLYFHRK
Protocol: as §1
5. Determination of Antimineralocorticoid Action by Means of Transactivation Tests:
The antimineralocorticoid activity of the test substances was determined as for the transactivation tests described above.
The following modifications were undertaken: In this case reporter cell lines were used (MDCK cells) that express the human mineralocorticoid receptor, and transiently contain a reporter construct that contains luciferase under the control of a steroid hormone-responsive promoter.

[5] = PC-3, read-out: Androgen receptor Agonism efficacy
[6] = PC-3, read-out: Androgen receptor Antagonism efficacy

SMILES	pEC50 (androgen receptor [1])	Emax (androgen receptor [1]; [5])	Emax (androgen receptor [1]; [6])	Androgen receptor Competition factor (androgen receptor [2])	pIC50 (androgen receptor [3])	pIC50 [4]	Emax ([4]; MDCK)	pIC50 (androgen receptor [1])	pIC50 (androgen receptor [3]; reference substance 3H-testosterone, cytosol from AR-expressing insect cells (Hi5), read-out: Androgen receptor IC50)	pIC50 ([4]; MDCK cells, with 1 nM aldosterone, read-out: Mineralocorticoid receptor Antagonism IC50)	Emax ([4]; MDCK cells, with 1 nM aldosterone)
CC[C@]12CC[C@H]3[C@@H]([C@H]4C[C@H]4C4=CC(=O)CC[C@@H]43)[C@@H]1[C@@H]1C[C@@H]1[C@@]21C=CC(=O)O1 [Example 1, 6β,7β;15β,16β-Bismethylene-17β-hydroxy-18-methyl-19-nor-17α-pregna-4,20(Z)-dien-3-one-21-carboxylic acid γ-lactone]	7.00	46.3%	5%	30.6	6.55	8.00	79.5%				
CC[C@]12CC[C@H]3[C@@H]([C@@H]4C[C@@H]4C4=CC(=O)CC[C@@H]43)[C@@H]1[C@@H]1C[C@@H]1[C@@]21C=CC(=O)O1 [Example 2, 6α,7α;15β,16β-Bismethylene-17β-hydroxy-18-methyl-19-nor-17α-pregna-4,20(Z)-dien-3-one-21-carboxylic acid γ-lactone]	6.89	32.6%	5%	49.6	6.35	6.64	112%				
CC[C@]12CC[C@H]3[C@@H](C=CC4=CC(=O)CC[C@@H]43)[C@@H]1[C@@H]1C[C@@H]1[C@@]21C=CC(=O)O1 [Example 3, 17β-Hydroxy-18-methyl-15β,16β-methylene-19-nor-17α-pregna-4,6,20(Z)-trien-3-one-21-carboxylic acid γ-lactone]	6.92	25.4%	5%	62.9	5.89	7.66	97.6%				
CC[C@]12CC[C@H]3[C@H]([C@@H]1[C@@H]1C[C@@H]1[C@@]21C=CC(=O)O1)[C@H](C)CC1=CC(=O)CC[C@@H]13 [Example 4A, 7α,18-Bismethyl-17β-hydroxy-15β,16β-methylene-19-nor-17α-pregna-4,20(Z)-dien-3-one-21-carboxylic acid γ-lactone]	8.52	97.5%	5%	2.6	7.22	8.52	99.9%				
CC[C@@H]1CC2=CC(=O)CC[C@@H]2[C@H]2CC[C@@]3(CC)[C@@H]([C@@H]4C[C@@H]4[C@@]34C=CC(=O)O4)[C@H]12 [Example 5A, 17β-Hydroxy-7α-ethyl-18-methyl-15β,16β-methylene-19-nor-17α-pregna-4,20(Z)-dien-3-one-21-carboxylic acid γ-lactone]	8.08	73%	5%	4.1	6.96						
C=C[C@@H]1CC2=CC(=O)CC[C@@H]2[C@H]2CC[C@@]3(CC)[C@@H]([C@@H]4C[C@@H]4[C@@]34C=CC(=O)O4)[C@@H]21 [Example 6A, 17β-Hydroxy-7α-vinyl-18-methyl-15β,16β-methylene-19-nor-17α-pregna-4,20(Z)-dien-3-one-21-carboxylic acid γ-lactone]	9.01	118%	5%	1.7	7.35	8.05	102%				
CC[C@]12CC[C@H]3[C@H]([C@@H]1[C@@H]1C[C@@H]1[C@@]21C=CC(=O)O1)[C@H](C1CC1)CC1=CC(=O)CC[C@@H]13 [Example 7A, 17β-Hydroxy-7α-cyclopropyl-18-methyl-15β,16β-methylene-19-nor-17α-pregna-4,20(Z)-dien-3-one-21-carboxylic acid γ-lactone]	7.48	62.6%	5%	5.2	6.77	7.11	102%				
CC[C@]12CC[C@H]3[C@@H]([C@H]4C[C@H]4C4=C(Cl)C(=O)CC[C@@H]43)[C@@H]1[C@@H]1C[C@@H]1[C@@]21C=CC(=O)O1 [Example 8, 6β,7β;15β,16β-Bismethylene-4-chloro-17β-hydroxy-18-methyl-19-nor-17α-pregna-4,20(Z)-dien-3-one-21-carboxylic acid γ-lactone]	6.60	32.9%	22.9%	240.0				6.89	5.37	6.02	31.1%
CC[C@]12CC[C@H]3[C@@H](CCC4=CC(=O)CC[C@@H]43)[C@@H]1[C@@H]1C[C@@H]1[C@@]21C=CC(=O)O1 [Example 9, 17β-Hydroxy-18-methyl-15β,16β-methylene-19-nor-17α-pregna-4,20(Z) dien-3-one-21-carboxylic acid γ-lactone]	8.33	96.2%	5%	5.6		8.52	27.8%				
C[C@]12CC[C@H]3[C@@H](CC4(CC4)C4=CC(=O)CC[C@@H]43)[C@@H]1[C@@H]1C[C@@H]1[C@@]21C=CC(=O)O1 [Example 22, 6,6-(1,2-Ethanediyl)-17β-hydroxy-15β,16β-methylene-19-nor-17α-pregna-4,20(Z)dien-3-one-21-carboxylic acid γ-lactone]	8.77	98.6%	5%	2.0		7.31	91.2%				
